Assay results from paper PMC7112772 (Journal of Virological Methods, 2005).
Like-named read-outs stand apart in the source and are kept apart here.

Assays:
[1] = in vitro; details: African monkey
[2] = system: SARS-CoV; assay: microbe, parasite or virus in culture; details: Severe acute respiratory syndrome coronavirus, 120 h, read-out: SARS-CoV EC50
[3] = system: TGEV; assay: microbe, parasite or virus in culture; type: cell-based, strain purdue112 (porcine coronavirus); details: read-out: TGEV EC50
[4] = in vitro; details: pig
[5] = system: SARS-CoV; details: for EC50: read-out: SARS-CoV EC50
[6] = system: LLC-PK1-EGFP cells
[7] = system: VeroE6-EGFP cells

Compound | CC50 [1] [µM] | EC50 [2] [µM] | EC50 ([3]; Alphacoronavirus 1, 120 h) [µM] | CC50 [4] [µM] | SI SARS CC50/EC50 [5] | EC50 [3] [µM] | CC50 [6] [µM] | EC50 [5] [µM] | CC50 [7] [µM]
O=C(O)C1=CC(=C(c2ccc(O)c(C(=O)O)c2)c2ccc(O)c(C(=O)O)c2)C=CC1=O [ATA, aurintricarboxylic acid] | 9.19 | > 9.19 | > 56.9 | 56.9 | <1.00 |  |  |  | 
Cc1cn([C@H]2C[C@H](N=[N+]=[N-])[C@@H](CO)O2)c(=O)[nH]c1=O [AZT] |  |  |  |  |  | > 100 | > 100 | > 100 | > 100
CC1(C)[C@@H](O[C@H]2O[C@H](C(=O)O)[C@@H](O)[C@H](O)[C@H]2O[C@@H]2O[C@H](C(=O)O)[C@@H](O)[C@H](O)[C@H]2O)CC[C@]2(C)[C@H]3C(=O)C=C4[C@@H]5C[C@@](C)(C(=O)O)CC[C@]5(C)CC[C@@]4(C)[C@]3(C)CC[C@@H]12 [Glycirrhizin] | > 100 | > 100 | > 100 | > 100 |  |  |  |  | 
NC(=O)c1ncn([C@@H]2O[C@H](CO)[C@@H](O)[C@H]2O)n1 [Ribavirin] | > 100 | > 100 | > 20.2 | 20.2 |  |  |  |  | 
Lopinavir/ritonavir |  |  |  |  |  |  | > 100 |  | > 100
S-Nitroso-N-acetylpenicillamine |  |  |  |  | <1.00 | > 312 | 312 | > 530 | 530
dextran sulfate 5000 [DS5000] |  |  |  |  |  | > 100 | > 100 | > 100 | > 100
